# “Also recorded” adds a separate entry of the source.
# Key:
# [1] = system: split intein constructs with short native extein sequences; assay: in vitro protein trans-splicing (PTS) assay, RP-HPLC / ESI-MS kinetics; type: biochemical
# Source text: Thus, attention was focused on ‘second shell’ residues, those directly adjacent to the active site. To simplify this analysis, a batch mutagenesis strategy was employed in conjunction with a previously reported in vitro PTS assay.^5 This assay uses split intein constructs with short native extein sequences and allows the rates of branched intermediate formation (k1,k2) and its resolution to final splice products (k3) to be determined using a three state kinetic model.
# Splicing reactions were carried out as adapted from a previously described protocol. Briefly, N- and C-inteins (15 μM Int^N, 10 μM Int^C) were individually preincubated in splicing buffer (100 mM sodium phosphates, 150 mM NaCl, 1 mM EDTA, pH 7.2) with 2 mM TCEP for 15 minutes. All splicing reactions were carried out at 30° C. unless otherwise indicated. Splicing reactions comparing the tolerance of Npu and Cfa to chaotropic agents were carried out with the indicated concentration of either Urea or guanidine hydrochloride. Splicing was initiated by mixing equal volumes of N- and C-inteins with aliquots removed at the indicated times and quenched by the addition of 8M guanidine hydrochloride, 4% TFA (3:1 v/v). For all splicing reactions containing either Npu^C-CFN or Cfa^C-CFN, reaction progress was monitored by RP-HPLC. […] (15 minute preincubation) were both observed to be inefficient, reaching ˜50% completion. This is likely due to aggregation (and inactivation) of the N-intein. Note, shorter preincubations of Cfa at 80° C. led to more efficient splicing.
# Kinetic analysis was carried out as previously described.^1 Briefly, five species (1-5) are separated by RP-HPLC, and peak areas are determined. For ESI-MS, peak areas are calculated for species 1-4. Each individual peak was normalized against the total area of all peaks combined and reaction progress curves were plotted (n=3). The data were then fit in ProFit to the analytical solution to the coupled differential rate equation for the three state kinetic splicing model. Because the starting material cannot be separated from the linear thioester using this assay, the three state kinetic model collapses the binding step and the first two steps of the splicing reaction into one equilibrium. Each splicing reaction was carried out in triplicate with each replicate analyzed separately. The mean and standard deviation for all values (n=3) are reported.
# All splicing reactions comparing Npu and Cfa were separated by RP-HPLC with peak areas once again calculated using the manufacturer's software. For these reactions, peak areas for the starting material and branched intermediate (species 1 and 2) and product (species 3, 4, 5) were calculated. The data was then fit to the first order rate equation using the GraphPad Prism software. [P](t)=[P]max·(1−e^−kt)
# Where [P] is the normalized intensity of product, [P]max is this value at t=∞ (the reaction plateau), and k is the rate constant (s^−1). The mean and standard deviation (n=3) are reported.
# [2] = refolding of N-inteins by stepwise dialysis; type: physicochemical; settings: stepwise dialysis into lysis buffer, 4° C.
# Protocol: The N-inteins were refolded by stepwise dialysis into lysis buffer with 0.5 mM DTT at 4° C. This refolded protein was then treated with 10 mM TCEP and Ulp1 protease (overnight, RT) to cleave the His6-SUMO expression tag. The solution was then mixed with 4 mL Ni-NTA resin and incubated for 30 minutes at 4° C. The slurry was applied to a fritted column and the flow through was collected together with a 3 CV wash with lysis buffer. The protein was then treated with 10 mM TCEP, concentrated to 10 mL, and further purified by size exclusion chromatography using an S75 16/60 gel filtration column employing degassed splicing buffer (100 mM sodium phosphate, 150 mM NaCl, 1 mM EDTA, pH 7.2) as the mobile phase. Fractions were analyzed by SDS-PAGE, analytical RP-HPLC, and ESI-MS. Pure protein was stored by flash-freezing in liquid N2 following the addition of glycerol (20% v/v).
# [3] = system: split intein constructs with short native extein sequences; settings: 30° C.; cited from earlier work
# [4] = system: split aminoglycoside phosphotransferase (KanR) in E. coli; assay: protein splicing coupled kanamycin resistance (Kan^R) assay; type: cell-based; settings: +2 position of the C-extein
# Protocol: The protein splicing coupled kanamycin resistance (Kan^R) assay was carried out as previously described.^2,9 Briefly, a plasmid coding for a fragmented aminoglycoside phosphotransferase fused to a split intein (Cfa) with either F, G, R, or E present at the +2 position of the C-extein (plasmids 22-25) was transformed into DH5α competent cells and grown in starter cultures overnight (LB Broth, 100 μg/mL ampicillin, 18 hrs). These cultures were then diluted twenty-fold into a 96 well plate, and E. coli growth was measured at various concentrations of kanamycin (2.5, 10, 25, 50, 100, 250, 1000 μg/mL kanamycin with 100 μg/mL ampicillin). The cell optical density at 650 nm (OD650) at the 24-hour end point was fit to a dose response curve with variable slope.
# Where ODmin was fixed to background absorbance at 650 nm. Each assay was carried out in triplicate, fit separately, and IC50 values are reported as the mean and standard deviation of IC50 for these three separate measurements.
# The kanamycin resistance protein, KanR, is split and fused to N- and C-intein fragments (Cfa^N and Cfa^C). The +2 C-extein residue (red X) is varied in the system. In Panel B, IC50 values for kanamycin resistance of the CfaEKD (WT) and CfaGEP (GEP) inteins with indicated +2 C-extein residue are shown (error=standard error (n=3)).
# Cfa^C-CFN = assay: protein trans-splicing of extracted inclusion body under denaturing conditions; type: biochemical; settings: extracted from inclusion bodies with 6M urea
# Protocol: E. coli inclusion bodies containing His6-Sumo-Cfa^N expression (plasmid 20) were resuspended and extracted overnight at 4° C. in lysis buffer containing 6M urea. Following centrifugation (35,000 rcf, 30 min), the supernatant was removed and the protein enriched by Ni-NTA under denaturing conditions (as described above). However, instead of refolding the protein, trans-splicing was directly initiated by the addition of Cfa^C-CFN (10 μM Cfa^C, 2 mM TCEP, 2 mM EDTA, 2 hrs, RT). Reaction progress was monitored by SDS-PAGE.
substance,measurement,setting,value
"Batch 3: Ssp^N batch mutant (S23E, E24K, E25R, N27E); plasmid 13, SEQ ID NO: 373",splicing completion,[1]; 30° C.,~50%
same,precipitation during the refolding step,[2],significant protein precipitation was observed
Npu: DnaE split intein from Nostoc punctiforme PCC73102; SEQ ID NO: 5 and 6 [reference compound],splicing in urea,[1]; 8M urea,inactive
same,splicing activity at 80° C.,[1]; 80° C.,inactive
same,splicing in urea,[1]; above 4M urea,falls off dramatically
same,splicing activity in GuHCl,[1]; ≥3M GuHCl (3M in FIG. 2 legend),no activity was observed; also recorded: inactive
same,"rate of protein trans-splicing (PTS), t1/2",[3],50 s
"Cfa: consensus fast DnaE split intein; Cfa^N SEQ ID NO: 2, Cfa^C SEQ ID NO: 3",splicing rate constant k (residual activity),[1]; 4M GuHCl,7e-05 s⁻¹
same,splicing in urea,[1]; 8M urea,largely unaffected
same,"branch formation rate, increase over Npu","[1]; 30° C., relative to Npu",3 fold
same,"branch resolution rate, increase over Npu","[1]; 30° C., relative to Npu",2 fold
same,splices faster than Npu,"[1]; 30° C., relative to Npu",2.5 fold
same,splicing activity at 80° C.,[1]; 80° C.,"maintains activity at 80° C., albeit with reduced yield of splice products"
same,splicing completion,"[1]; 80° C., 15 minute preincubation",~50%
same,GuHCl concentration up to which the intein splices,[1]; guanidine hydrochloride added,up to 4 M
same,splicing activity in GuHCl,[1]; up to 3M GuHCl,little decrease in activity
same,C-extein +2 residue preference,[4],retains the preference for a bulky hydrophobic residue
"A136S: A136S point mutant on the Ssp^C intein; plasmid 19, SEQ ID NO: 379 [Compound A136S]",effect of mutation on branch formation,[1]; mutation on Ssp^C,no impact
same,effect of mutation on rate of branch resolution,[1]; mutation on Ssp^C,two fold
"Cfa^N fusion: model fusion protein His6-SUMO-AEY-Cfa^N; plasmid 20, SEQ ID NO: 381",modification by PTS without refolding,Cfa^C-CFN,"efficiently, modified by PTS"
